Tested on: PDE3
Assay: Inhibition of PDE3 activity, two-step procedure
Type: biochemical
Settings: homogenate of guinea pig lungs or hearts
Procedure: Activities of PDE1~5 in the homogenate of guinea pig lungs or hearts were measured by a two-step procedure according to the previous method, using cAMP with [^3H]-cAMP or cGMP with [^3H]-cGMP as substrates. […] The reagents and homogenate were mixed on ice, and the reaction was initiated by transferring the mixture to a water bath at 37°C. Following a 30-min incubation, the reaction was stopped by transferring the reaction vessel to a bath of boiling water for 3 min. After cooling on ice, 20 μl of a 1 mg/ml solution of Crotalus atrox snake venom was added to the reaction mixture, and the mixture was incubated at 37°C for 10 min. Unreacted [^3H]-cAMP or [^3H]-cGMP was removed by the addition of 500 μl of a 1-in-1 Tris-HCl (40 mM) buffer suspension of Dowex resin (1 × 8-200) with incubation on ice for 30 min. Each tube was then centrifuged at 3700 g for 2 min, and 150 μl of the supernatant was removed for liquid scintillation counting. […] The total protein in each fraction used was assayed according to a previous method. PDE activities are reported as nmol/mg/min.

COc1cc(O)c2c(c1)O[C@H](c1ccc(OC)c(OC)c1)CC2=O [HDME, hesperetin-7,3'-O-dimethylether]
IC50: 24.6 ± 3.5 µM

— PMC3225327 (Journal of Biomedical Science, 2011)
